Assays:
[1] = target: Serine/threonine-protein kinase TAO1 (Homo sapiens) (UniProt Q7L7X3); assay: Inhibition of TAOK1 at 10 uM
[2] = target: Casein kinase I isoform gamma-2 (Homo sapiens) (UniProt P78368); assay: Inhibition of CSNK1G2 at 10 uM; values are per cent of control
[3] = target: Serine/threonine-protein kinase N1 (Homo sapiens) (UniProt Q16512); assay: Inhibition of PKN1 at 10 uM
[4] = target: Tyrosine-protein kinase JAK1 (Homo sapiens) (UniProt P23458); assay: Inhibition of JAK1 JH2 pseudokinase domain at 10 uM; values are per cent of control
[5] = target: Interleukin-1 receptor-associated kinase 4 (Homo sapiens) (UniProt Q9NWZ3); assay: Inhibition of IRAK4 at 10 uM; values are per cent of control
[6] = target: Ribosomal protein S6 kinase alpha-1 (Homo sapiens) (UniProt Q15418); assay: Inhibition of RSK1 N-terminal domain1 at 10 uM
Chain of Ribosomal protein S6 kinase alpha-1 (Homo sapiens) (Q15418 whole entry, the tested form may be a part): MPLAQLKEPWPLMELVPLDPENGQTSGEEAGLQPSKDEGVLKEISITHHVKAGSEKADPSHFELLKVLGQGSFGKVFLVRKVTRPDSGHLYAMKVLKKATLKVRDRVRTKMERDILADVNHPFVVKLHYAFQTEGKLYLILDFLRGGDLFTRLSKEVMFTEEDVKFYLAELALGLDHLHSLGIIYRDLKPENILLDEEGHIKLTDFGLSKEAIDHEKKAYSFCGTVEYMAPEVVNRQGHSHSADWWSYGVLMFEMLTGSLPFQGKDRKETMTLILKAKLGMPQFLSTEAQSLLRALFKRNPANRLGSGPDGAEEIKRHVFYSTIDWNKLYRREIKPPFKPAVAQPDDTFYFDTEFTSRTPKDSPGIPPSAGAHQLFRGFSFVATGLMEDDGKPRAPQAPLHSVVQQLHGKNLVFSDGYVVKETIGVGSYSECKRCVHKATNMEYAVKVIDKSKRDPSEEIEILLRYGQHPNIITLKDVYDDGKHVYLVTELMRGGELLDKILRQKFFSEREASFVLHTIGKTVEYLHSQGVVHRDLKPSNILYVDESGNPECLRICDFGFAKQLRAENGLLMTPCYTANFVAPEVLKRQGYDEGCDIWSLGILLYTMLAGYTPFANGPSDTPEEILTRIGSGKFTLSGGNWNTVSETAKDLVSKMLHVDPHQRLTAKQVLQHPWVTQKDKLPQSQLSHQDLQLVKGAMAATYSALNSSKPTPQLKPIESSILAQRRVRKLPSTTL

[7] = target: Cyclin-dependent kinase-like 2 (Homo sapiens) (UniProt Q92772); assay: Inhibition of CDKL2 at 10 uM; settings: values are per cent of control
[8] = target: Proto-oncogene tyrosine-protein kinase ROS (Homo sapiens) (UniProt P08922); assay: Inhibition of ROS1 at 10 uM
Chain of Proto-oncogene tyrosine-protein kinase ROS (Homo sapiens) (P08922 whole entry): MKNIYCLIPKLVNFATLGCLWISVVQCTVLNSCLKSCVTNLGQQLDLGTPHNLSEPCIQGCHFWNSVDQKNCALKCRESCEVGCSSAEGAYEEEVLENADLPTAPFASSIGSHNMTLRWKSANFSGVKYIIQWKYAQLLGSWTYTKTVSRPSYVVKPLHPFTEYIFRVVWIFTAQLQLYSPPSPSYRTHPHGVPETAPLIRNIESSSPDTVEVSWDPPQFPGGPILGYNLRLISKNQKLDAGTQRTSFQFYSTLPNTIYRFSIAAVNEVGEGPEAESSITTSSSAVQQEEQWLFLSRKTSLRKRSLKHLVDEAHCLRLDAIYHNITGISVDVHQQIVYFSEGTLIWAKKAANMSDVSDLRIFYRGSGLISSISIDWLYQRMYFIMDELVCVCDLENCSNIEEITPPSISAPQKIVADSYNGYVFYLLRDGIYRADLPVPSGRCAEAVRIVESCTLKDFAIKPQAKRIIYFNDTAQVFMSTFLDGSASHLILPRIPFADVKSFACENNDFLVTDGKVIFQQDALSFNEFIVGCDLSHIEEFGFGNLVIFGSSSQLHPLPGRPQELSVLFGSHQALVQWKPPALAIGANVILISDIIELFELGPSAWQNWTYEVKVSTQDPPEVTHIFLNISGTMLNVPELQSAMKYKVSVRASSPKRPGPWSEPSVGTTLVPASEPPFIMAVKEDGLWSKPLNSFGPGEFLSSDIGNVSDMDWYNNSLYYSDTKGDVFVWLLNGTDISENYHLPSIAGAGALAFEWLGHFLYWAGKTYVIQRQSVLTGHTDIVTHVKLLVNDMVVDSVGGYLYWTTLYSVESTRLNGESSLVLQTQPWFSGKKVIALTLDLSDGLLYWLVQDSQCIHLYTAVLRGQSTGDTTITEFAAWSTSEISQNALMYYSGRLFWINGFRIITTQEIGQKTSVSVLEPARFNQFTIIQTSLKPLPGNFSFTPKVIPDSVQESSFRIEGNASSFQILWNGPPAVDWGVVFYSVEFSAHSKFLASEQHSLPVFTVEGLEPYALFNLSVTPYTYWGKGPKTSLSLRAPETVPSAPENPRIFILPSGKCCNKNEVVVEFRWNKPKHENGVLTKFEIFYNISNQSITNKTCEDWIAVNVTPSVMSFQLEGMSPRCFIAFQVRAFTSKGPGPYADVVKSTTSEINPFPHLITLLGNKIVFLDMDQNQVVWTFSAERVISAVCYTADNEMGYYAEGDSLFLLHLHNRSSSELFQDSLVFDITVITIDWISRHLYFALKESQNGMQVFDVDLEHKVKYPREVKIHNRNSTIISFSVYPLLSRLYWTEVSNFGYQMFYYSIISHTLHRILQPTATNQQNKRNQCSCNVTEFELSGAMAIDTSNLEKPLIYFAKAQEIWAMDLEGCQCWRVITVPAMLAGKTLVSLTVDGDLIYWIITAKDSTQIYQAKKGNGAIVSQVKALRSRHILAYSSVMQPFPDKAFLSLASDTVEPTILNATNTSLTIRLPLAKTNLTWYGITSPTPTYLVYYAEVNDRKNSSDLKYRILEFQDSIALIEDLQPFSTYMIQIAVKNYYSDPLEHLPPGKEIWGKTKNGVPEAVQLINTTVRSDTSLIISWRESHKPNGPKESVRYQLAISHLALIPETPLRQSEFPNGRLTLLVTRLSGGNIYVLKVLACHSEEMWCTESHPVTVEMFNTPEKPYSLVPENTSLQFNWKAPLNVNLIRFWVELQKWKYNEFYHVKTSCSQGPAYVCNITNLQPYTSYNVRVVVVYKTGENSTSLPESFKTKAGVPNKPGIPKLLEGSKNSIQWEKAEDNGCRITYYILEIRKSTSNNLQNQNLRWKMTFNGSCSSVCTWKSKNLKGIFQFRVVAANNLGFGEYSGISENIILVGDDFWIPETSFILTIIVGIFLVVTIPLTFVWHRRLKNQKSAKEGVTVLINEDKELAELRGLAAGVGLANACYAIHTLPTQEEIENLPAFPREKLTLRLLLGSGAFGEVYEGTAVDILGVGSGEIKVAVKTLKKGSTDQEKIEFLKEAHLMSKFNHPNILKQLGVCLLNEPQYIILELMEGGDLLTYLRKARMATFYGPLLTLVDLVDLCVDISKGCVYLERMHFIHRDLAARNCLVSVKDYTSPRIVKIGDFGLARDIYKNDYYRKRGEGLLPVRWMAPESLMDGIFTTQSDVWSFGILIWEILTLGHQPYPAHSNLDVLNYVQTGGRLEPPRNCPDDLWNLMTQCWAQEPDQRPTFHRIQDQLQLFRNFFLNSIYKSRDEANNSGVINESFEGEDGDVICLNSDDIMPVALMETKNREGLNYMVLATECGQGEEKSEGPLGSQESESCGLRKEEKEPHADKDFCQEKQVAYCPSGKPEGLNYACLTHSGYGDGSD

[9] = target: Serine/threonine-protein kinase MARK1 (Homo sapiens) (UniProt Q9P0L2); assay: Inhibition of MARK1 at 10 uM; settings: values are per cent of control
Chain of Serine/threonine-protein kinase MARK1 (Homo sapiens) (Q9P0L2 whole entry, looked up): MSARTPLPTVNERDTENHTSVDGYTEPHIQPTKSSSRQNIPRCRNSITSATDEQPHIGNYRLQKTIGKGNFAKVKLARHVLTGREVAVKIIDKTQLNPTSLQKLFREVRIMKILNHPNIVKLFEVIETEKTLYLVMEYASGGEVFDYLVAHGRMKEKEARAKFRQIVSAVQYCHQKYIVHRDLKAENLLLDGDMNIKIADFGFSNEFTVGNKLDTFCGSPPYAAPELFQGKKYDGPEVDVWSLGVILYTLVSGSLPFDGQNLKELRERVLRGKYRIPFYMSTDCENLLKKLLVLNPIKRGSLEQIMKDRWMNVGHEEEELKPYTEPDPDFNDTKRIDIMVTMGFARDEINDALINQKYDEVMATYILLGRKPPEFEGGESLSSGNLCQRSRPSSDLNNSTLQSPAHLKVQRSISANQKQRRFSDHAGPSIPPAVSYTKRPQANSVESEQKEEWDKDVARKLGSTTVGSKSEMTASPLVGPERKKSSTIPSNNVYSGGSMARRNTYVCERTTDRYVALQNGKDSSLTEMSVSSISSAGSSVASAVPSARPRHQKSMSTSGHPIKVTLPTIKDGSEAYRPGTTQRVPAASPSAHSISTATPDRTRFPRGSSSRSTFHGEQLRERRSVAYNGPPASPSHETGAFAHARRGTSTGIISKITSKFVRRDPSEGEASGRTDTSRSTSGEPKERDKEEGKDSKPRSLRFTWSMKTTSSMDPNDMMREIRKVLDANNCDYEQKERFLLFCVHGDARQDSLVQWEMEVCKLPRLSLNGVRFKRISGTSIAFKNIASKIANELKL

[10] = target: cGMP-dependent protein kinase 1 (Homo sapiens) (UniProt Q13976); assay: Inhibition of PRKG1 at 10 uM; settings: values are per cent of control
[11] = target: Ribosomal protein S6 kinase alpha-1 (Homo sapiens) (UniProt Q15418); assay: Inhibition of RSK1 C-terminal domain2 at 10 uM
[12] = target: Dual serine/threonine and tyrosine protein kinase (Homo sapiens) (UniProt Q6XUX3); assay: Inhibition of RIPK5 at 10 uM
[13] = target: Cyclin-dependent kinase 8 (Homo sapiens) (UniProt P49336); assay: Inhibition of CDK8 at 10 uM; values are per cent of control
[14] = test system: Tyrosine-protein kinase ABL1 (Homo sapiens), P00519 [F317I]; assay: Inhibition of non phosphorylated ABL1 F317I mutant at 10 uM; settings: values are per cent of control
[15] = target: Tyrosine-protein kinase HCK (Homo sapiens) (UniProt P08631); assay: Inhibition of HCK at 10 uM; settings: values are per cent of control
[16] = target: Dual specificity tyrosine-phosphorylation-regulated kinase 1B (Homo sapiens) (UniProt Q9Y463); assay: Inhibition of DYRK1B at 10 uM; settings: values are per cent of control
Chain of Dual specificity tyrosine-phosphorylation-regulated kinase 1B (Homo sapiens) (Q9Y463 whole entry, looked up): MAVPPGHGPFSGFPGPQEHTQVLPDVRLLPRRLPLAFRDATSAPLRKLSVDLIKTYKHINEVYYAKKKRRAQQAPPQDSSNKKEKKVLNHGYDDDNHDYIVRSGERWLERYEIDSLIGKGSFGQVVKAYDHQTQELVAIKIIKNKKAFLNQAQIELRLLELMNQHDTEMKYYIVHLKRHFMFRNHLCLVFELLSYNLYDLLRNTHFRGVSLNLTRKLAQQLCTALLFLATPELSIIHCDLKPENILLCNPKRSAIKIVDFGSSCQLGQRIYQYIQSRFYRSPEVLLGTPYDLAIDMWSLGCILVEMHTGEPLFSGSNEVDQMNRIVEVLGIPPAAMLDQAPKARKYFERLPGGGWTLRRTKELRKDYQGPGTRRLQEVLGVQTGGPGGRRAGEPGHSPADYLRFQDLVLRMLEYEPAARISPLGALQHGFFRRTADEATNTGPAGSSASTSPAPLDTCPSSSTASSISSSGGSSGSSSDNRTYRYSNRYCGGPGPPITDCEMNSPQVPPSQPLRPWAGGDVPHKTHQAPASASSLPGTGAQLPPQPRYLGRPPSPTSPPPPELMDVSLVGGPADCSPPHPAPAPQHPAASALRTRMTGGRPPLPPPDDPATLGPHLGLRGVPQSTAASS

[17] = target: Dual specificity mitogen-activated protein kinase kinase 3 (Homo sapiens) (UniProt P46734); assay: Inhibition of MEK3 at 10 uM; settings: values are per cent of control
Chain of Dual specificity mitogen-activated protein kinase kinase 3 (Homo sapiens) (P46734 whole entry, the tested form may be a part): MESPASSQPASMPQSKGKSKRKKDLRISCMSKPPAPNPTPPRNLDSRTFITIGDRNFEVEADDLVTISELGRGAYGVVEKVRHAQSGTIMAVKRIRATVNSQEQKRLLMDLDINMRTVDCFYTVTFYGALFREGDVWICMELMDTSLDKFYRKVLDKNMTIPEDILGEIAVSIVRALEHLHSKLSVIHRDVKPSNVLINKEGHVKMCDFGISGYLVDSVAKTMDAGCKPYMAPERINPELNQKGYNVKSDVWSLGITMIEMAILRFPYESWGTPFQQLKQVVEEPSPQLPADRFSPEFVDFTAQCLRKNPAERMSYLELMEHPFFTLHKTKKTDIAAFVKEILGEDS

[18] = target: Ribosomal protein S6 kinase alpha-4 (Homo sapiens) (UniProt O75676); assay: Inhibition of RPS6KA4 N-terminal domain1 at 10 uM
[19] = target: Tyrosine-protein kinase receptor Tie-1 (Homo sapiens) (UniProt P35590); assay: Inhibition of TIE1 at 10 uM
[20] = test system: Leucine-rich repeat serine/threonine-protein kinase 2 (Homo sapiens), Q5S007 [G2019S]; assay: Inhibition of LRRK2 G2019S mutant at 10 uM; settings: values are per cent of control
[21] = target: Leukocyte tyrosine kinase receptor (Homo sapiens) (UniProt P29376); assay: Inhibition of LTK at 10 uM; settings: values are per cent of control
[22] = target: Mitogen-activated protein kinase kinase kinase 2 (Homo sapiens) (UniProt Q9Y2U5); assay: Inhibition of MAP3K2 at 10 uM; settings: values are per cent of control
[23] = target: TRAF2 and NCK-interacting protein kinase (Homo sapiens) (UniProt Q9UKE5); assay: Inhibition of TNIK at 10 uM; settings: values are per cent of control
[24] = target: Mitogen-activated protein kinase 6 (Homo sapiens) (UniProt Q16659); assay: Inhibition of ERK3 at 10 uM; settings: values are per cent of control
[25] = target: Serine/threonine-protein kinase mTOR (Homo sapiens) (UniProt P42345); assay: Inhibition of MTOR at 10 uM; values are per cent of control
[26] = target: Serine/threonine-protein kinase MRCK alpha (Homo sapiens) (UniProt Q5VT25); assay: Inhibition of MRCKA at 10 uM
[27] = target: Ephrin type-B receptor 4 (Homo sapiens) (UniProt P54760); assay: Inhibition of EPHB4 at 10 uM; settings: values are per cent of control
[28] = target: Serine/threonine-protein kinase ULK3 (Homo sapiens) (UniProt Q6PHR2); assay: Inhibition of ULK3 at 10 uM; settings: values are per cent of control
[29] = target: Wee1-like protein kinase (Homo sapiens) (UniProt P30291); assay: Inhibition of WEE1 at 10 uM; settings: values are per cent of control
[30] = target: High affinity nerve growth factor receptor (Homo sapiens) (UniProt P04629); assay: Inhibition of TRKA at 10 uM; values are per cent of control
[31] = target: Serine/threonine-protein kinase ULK2 (Homo sapiens) (UniProt Q8IYT8); assay: Inhibition of ULK2 at 10 uM; settings: values are per cent of control
[32] = target: Calcium/calmodulin-dependent protein kinase type 1G (Homo sapiens) (UniProt Q96NX5); assay: Inhibition of CAMK1G at 10 uM; settings: values are per cent of control
[33] = target: Cyclin-dependent kinase 3 (Homo sapiens) (UniProt Q00526); assay: Inhibition of CDK3 at 10 uM; values are per cent of control
[34] = target: Serine/threonine-protein kinase PLK2 (Homo sapiens) (UniProt Q9NYY3); assay: Inhibition of PLK2 at 10 uM; settings: values are per cent of control
[35] = target: Serine/threonine-protein kinase 17A (Homo sapiens) (UniProt Q9UEE5); assay: Inhibition of DRAK1 at 10 uM; values are per cent of control
[36] = target: Receptor-type tyrosine-protein kinase FLT3 (Homo sapiens) (UniProt P36888); assay: Inhibition of FLT3 at 10 uM; settings: values are per cent of control
[37] = target: Serine/threonine-protein kinase Nek2 (Homo sapiens) (UniProt P51955); assay: Inhibition of NEK2 at 10 uM
[38] = test system: Phosphatidylinositol 4,5-bisphosphate 3-kinase catalytic subunit alpha isoform (Homo sapiens), P42336 [E545A]; assay: Inhibition of PIK3CA E545A mutant at 10 uM
[39] = target: Serine/threonine-protein kinase 35 (Homo sapiens) (UniProt Q8TDR2); assay: Inhibition of STK35 at 10 uM
[40] = target: Serine/threonine-protein kinase PAK 4 (Homo sapiens) (UniProt O96013); assay: Inhibition of PAK4 at 10 uM
[41] = target: Serine/threonine-protein kinase 17B (Homo sapiens) (UniProt O94768); assay: Inhibition of DRAK2 at 10 uM; settings: values are per cent of control
[42] = target: Tyrosine-protein kinase JAK3 (Homo sapiens) (UniProt P52333); assay: Inhibition of JAK3 JH1 catalytic domain at 10 uM; values are per cent of control

## CCN1CCN(Cc2ccc(NC(=O)c3ccc(C)c(C#Cc4cnc5[nH]ccc5c4)c3)cc2C(F)(F)F)CC1
[1]
  inhibition: 0%
[2]
  level, % of control: 14%
[3]
  inhibition: 28%
[4]
  level, % of control: 74%
[5]
  level, % of control: 64%
[6]
  inhibition: 34%
[7]
  residual binding, % of control: 4.8%
[8]
  inhibition: 34%
[9]
  residual binding, % of control: 100%
[10]
  residual binding, % of control: 100%
[11]
  inhibition: 17%
[12]
  inhibition: 8.2%
[13]
  level, % of control: 18%
[14]
  residual binding, % of control: 8.8%
[15]
  residual binding, % of control: 0.15%
[16]
  residual binding, % of control: 15%
[17]
  residual binding, % of control: 67%
[18]
  inhibition: 3.6%
[19]
  inhibition: 1.1%
[20]
  residual binding, % of control: 8.8%
[21]
  residual binding, % of control: 2.5%
[22]
  residual binding, % of control: 0.1%
[23]
  residual binding, % of control: 1.6%
[24]
  residual binding, % of control: 100%
[25]
  level, % of control: 88%
[26]
  inhibition: 73%
[27]
  residual binding, % of control: 0.8%
[28]
  residual binding, % of control: 0.25%
[29]
  residual binding, % of control: 100%
[30]
  level, % of control: 0.3%
[31]
  residual binding, % of control: 61%
[32]
  residual binding, % of control: 92%
[33]
  level, % of control: 32%
[34]
  residual binding, % of control: 100%
[35]
  % of control: 24%
[36]
  residual binding, % of control: 0.15%
[37]
  inhibition: 100%
[38]
  inhibition: 93%
[39]
  inhibition: 0.8%
[40]
  inhibition: 87%
[41]
  residual binding, % of control: 12%
[42]
  level, % of control: 3.5%

## CCN1CCN(Cc2ccc(NC(=O)c3ccc(C)c(C#Cc4cccnc4)c3)cc2C(F)(F)F)CC1
[1]
  inhibition: 0.25%
[2]
  level, % of control: 100%
[3]
  inhibition: 85%
[4]
  level, % of control: 90%
[5]
  level, % of control: 72%
[6]
  inhibition: 53%
[7]
  residual binding, % of control: 1.4%
[8]
  inhibition: 46%
[9]
  residual binding, % of control: 83%
[10]
  residual binding, % of control: 100%
[11]
  inhibition: 7.2%
[12]
  inhibition: 27%
[13]
  level, % of control: 8.2%
[14]
  residual binding, % of control: 8.8%
[15]
  residual binding, % of control: 0.05%
[16]
  residual binding, % of control: 47%
[17]
  residual binding, % of control: 86%
[18]
  inhibition: 30%
[19]
  inhibition: 1.6%
[20]
  residual binding, % of control: 7.5%
[21]
  residual binding, % of control: 4.5%
[22]
  residual binding, % of control: 0.15%
[23]
  residual binding, % of control: 1.8%
[24]
  residual binding, % of control: 100%
[25]
  level, % of control: 92%
[26]
  inhibition: 87%
[27]
  residual binding, % of control: 1.6%
[28]
  residual binding, % of control: 0.25%
[29]
  residual binding, % of control: 100%
[30]
  level, % of control: 0.35%
[31]
  residual binding, % of control: 50%
[32]
  residual binding, % of control: 100%
[33]
  level, % of control: 24%
[34]
  residual binding, % of control: 100%
[35]
  % of control: 87%
[36]
  residual binding, % of control: 0.25%
[37]
  inhibition: 100%
[38]
  inhibition: 93%
[39]
  inhibition: 1.6%
[40]
  inhibition: 100%
[41]
  residual binding, % of control: 100%
[42]
  level, % of control: 2.3%

— ChEMBL document CHEMBL1177794, “Broad spectrum alkynyl inhibitors of T315I Bcr-Abl” (Bioorg Med Chem Lett, 2010)
